Laboratory results as given in patent publication US4064169A, “Bis-(meta-amidinophenoxy)-compounds and pharmacologically acceptable acid addition salts thereof” (Eisai Co., Ltd., priority 1976, dated 1977).

How the values were obtained:
Assay in all cases: Antifungal Test (agar dilution M.I.C.)
Type in all cases: cell-based
Settings in all cases: Table 2; 37° C., 3 days (72 hours)
[1] = test system: Candida albicans Yu-1200 IFM 4020
Procedure: (§1) Respective agar plates were prepared by dissolving compounds under test in aseptic water to make a two fold dilution series, taking each 1 milliliter of said diluted solutions and 9 ml of Sabouraud medium into a petri dish, and sufficiently admixing the same.
(§2) On the other hand, an inoculum was prepared by cultivating an examined fungus (microorganism) on the Sabouraud slant medium and suspending two loopful of the incubated fungus in 10 ml of sterilized physiological saline water.
(§3) One loopful of the inoculum was streaked on the above-mentioned agar plate. After the agar plate was incubated at a defined temperature for a predetermined period of time to determine the minimal inhibitory concentration (M.I.C.).
(§4) Incubation temperature:
(§5) Incubation time: 3 days (72 hours) and
(§6) Incubation time: 3 days (72 hours)
(§7) activity incubation conditions:
(§8) Incubation time 3 days (72 hours)
(§9) Incubation time 7 days (168 hours)
(§10) Incubation time 2 days (48 hours)

[2] = test system: Candida albicans AHU 3656
Procedure: as §1, §2, §3, §4, §5, §6, §7, §8, §9, §10

[3] = test system: Candida albicans NAKAGAWA IFM 4017
Procedure: as §1, §2, §3, §4, §5, §6, §7, §8, §9, §10

Measured: M.I.C.

C[C@@H]1[C@H](O)[C@@H](C)/C=C/C=C/CC/C=C/C=C/C=C/C=C/C(O[C@H]2O[C@H](C)[C@@H](O)[C@H](N)[C@@H]2O)CC2O[C@](O)(CC(O)C(O)CCC(O)CC(O)CC(O)CC(=O)O[C@H]1C)CC(O)C2C(=O)O (stereo partly drawn) [Nystatin, reference compound]
6.25 µg/mL: all assays above
